The target of one assay is T1, K-Ras G12D (Homo sapiens, UniProt P01116, G12D).
T1 construct: made in house; host or cells: E. coli BL21 (DE3)
Briefly: HTRF resonance energy transfer assay, K-Ras G12D / SOS1 interaction. It counts as biochemical. As to conditions: HTRF assay of Example 5; read-out: IC50 against K-Ras G12D. In a few lines: (§1)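 Read-out: HTRF 665/620 nm ratio (excitation 337 nm) after roughly 10 min or longer incubation, used to derive IC50. Donor anti-GST-Eu on GST-K-Ras; acceptor anti-6His-XL665 on His-hSOS1. Duplicate dose series from 10 μM down to 0.01 μM.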
(In TR-FRET formats the signal depends on donor and acceptor labels being close together.)

For a further assay, the target named is T2, K-Ras G12S (Homo sapiens, UniProt P01116, G12S).
T2 construct: made in house; host or cells: E. coli BL21 (DE3)
T2 sequence (P01116 1-188 isoform P01116-2 G12S): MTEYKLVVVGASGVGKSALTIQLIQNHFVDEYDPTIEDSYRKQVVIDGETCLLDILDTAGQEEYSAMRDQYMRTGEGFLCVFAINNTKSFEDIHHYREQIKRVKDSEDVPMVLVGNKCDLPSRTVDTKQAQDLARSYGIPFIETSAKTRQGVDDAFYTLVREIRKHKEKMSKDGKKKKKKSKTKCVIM
Briefly: HTRF resonance energy transfer assay, K-Ras G12S / SOS1 interaction. It counts as biochemical. As to conditions: HTRF assay of Example 5; read-out: IC50 against K-Ras G12S. In a few lines: as §1

A further assay has as its target T3, K-Ras G12V (Homo sapiens, UniProt P01116, G12V).
T3 construct: made in house; host or cells: E. coli BL21 (DE3)
Briefly: HTRF resonance energy transfer assay, K-Ras G12V / SOS1 interaction. It counts as biochemical. As to conditions: HTRF assay of Example 5; read-out: IC50 against K-Ras G12V. In a few lines:
as §1

The next assay deals with T4, K-Ras WT (Homo sapiens, UniProt P01116).
T4 construct: made in house; host or cells: E. coli BL21 (DE3)
T4 sequence (P01116 1-188 isoform P01116-2): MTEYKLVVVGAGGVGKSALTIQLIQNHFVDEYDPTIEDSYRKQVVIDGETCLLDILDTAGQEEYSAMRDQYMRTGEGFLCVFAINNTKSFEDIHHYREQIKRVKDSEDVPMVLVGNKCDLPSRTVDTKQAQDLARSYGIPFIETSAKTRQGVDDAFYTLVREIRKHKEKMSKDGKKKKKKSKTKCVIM
Briefly: HTRF resonance energy transfer assay, K-Ras WT / SOS1 interaction. It counts as biochemical. As to conditions: HTRF assay of Example 5; read-out: IC50 against K-Ras WT. In a few lines:
as §1

Another assay relates to A549 cells. The assay can be described thus: Ras cellular assay, growth of cells with K-Ras G12S mutation (CellTiter-Glo). It is filed as cell-based. As to conditions: Homo sapiens, cell growth, Example 9, G12S mutation, read-out: IC50 against A549 cells. The procedure, abridged: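 A549 cells (K-Ras G12S) in RPMI-1640 with 10% heat-inactivated FBS, seeded e.g. 800 per well in standard or ultra-low-attachment 384-well plates, treated next day with a dilution series (e.g. 10-point, 3-fold). Viability by CellTiter-Glo luminescence about 6 days later; IC50 from four-parameter fit.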

The next assay concerns SW620 cells. The assay can be described thus: Ras cellular assay, growth of cells with K-Ras G12V mutation (CellTiter-Glo). It counts as cell-based. As to conditions: Homo sapiens, SW-620; cell growth, Example 9, G12V mutation; read-out: IC50 against SW620 cells. In a few lines:
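SW620 (K-Ras G12V) cells, e.g. 800/well in RPMI-1640 with 10% heat-inactivated FBS on standard or ultra-low attachment plates, were dosed the day after plating with e.g. a 10-point 3-fold series. Viability by CellTiter-Glo luminescence about 6 days later; IC50 from four-parameter fit.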

SMILES strings stand for the structures.

T1 sequence (P01116 1-188 isoform P01116-2 G12D): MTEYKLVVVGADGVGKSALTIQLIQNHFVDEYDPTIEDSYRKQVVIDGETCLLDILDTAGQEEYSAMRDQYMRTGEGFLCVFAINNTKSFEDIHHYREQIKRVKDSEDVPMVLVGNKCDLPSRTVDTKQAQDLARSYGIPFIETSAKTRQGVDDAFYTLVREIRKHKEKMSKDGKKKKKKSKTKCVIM
T3 sequence (P01116 1-188 isoform P01116-2 G12V): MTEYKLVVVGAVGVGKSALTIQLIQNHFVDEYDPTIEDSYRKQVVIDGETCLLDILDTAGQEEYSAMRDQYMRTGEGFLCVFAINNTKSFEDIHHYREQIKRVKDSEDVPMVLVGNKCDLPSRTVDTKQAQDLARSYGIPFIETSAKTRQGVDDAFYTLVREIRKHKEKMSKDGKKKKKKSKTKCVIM

The term IC50 denotes the concentration that gives 50% inhibition. For `C[C@H]1CN(C2CCN(C(=O)C3CC3C#N)CC2)c2nc(OC[C@@]34CCCN3C[C@H](F)C4)nc3c(F)c(-c4ccc(F)c5sc(N)c(C#N)c45)c(Cl)c(c23)O1` (stereo partly drawn) [Compound 1051, 2-amino-4-((6S)-8-chloro-4-(1-(2-cyanocyclopropane-1-carbonyl)piperidin-4-yl)-10-fluoro-2-(((2R,7aS)-2-fluorotetrahydro-1H-pyrrolizin-7a(5H)-yl)methoxy)-6-methyl-5,6-dihydro-4H-[1,4]oxazepino[5,6,7-de]quinazolin-9-yl)-7-fluorobenzo[b]thiophene-3-carbonitrile], the IC50 on K-Ras G12D was < 100 nM; on K-Ras G12S it was < 100 nM; at K-Ras G12V, < 100 nM; at K-Ras WT it was < 100 nM; in the assay on A549 cells it was < 5000 nM; in the assay with SW620 cells, < 5000 nM.
As to `CC(C1CC1)N1CCOc2c(Cl)c(-c3ccc(F)c4sc(N)c(C#N)c34)c(F)c3nc(OC[C@@]45CCCN4C[C@H](F)C5)nc1c23` (stereo partly drawn) [Compound 1054, 2-amino-4-(8-chloro-4-(1-cyclopropylethyl)-10-fluoro-2-(((2R,7aS)-2-fluorotetrahydro-1H-pyrrolizin-7a(5H)-yl)methoxy)-5,6-dihydro-4H-[1,4]oxazepino[5,6,7-de]quinazolin-9-yl)-7-fluorobenzo[b]thiophene-3-carbonitrile], the IC50 at K-Ras G12D is < 100 nM; on K-Ras G12S it was < 100 nM; on K-Ras G12V, < 100 nM; on K-Ras WT, < 100 nM; in the assay with A549 cells, < 5000 nM; in the assay on SW620 cells, < 5000 nM.
As for `CN(CCN1CCOc2c(Cl)c(-c3ccc(F)c4sc(N)c(C#N)c34)c(F)c3nc(OC[C@@]45CCCN4C[C@H](F)C5)nc1c23)C(=O)C1COC1` [Compound 1058, N-(2-(9-(2-amino-3-cyano-7-fluorobenzo[b]thiophen-4-yl)-8-chloro-10-fluoro-2-(((2R,7aS)-2-fluorotetrahydro-1H-pyrrolizin-7a(5H)-yl)methoxy)-5,6-dihydro-4H-[1,4]oxazepino[5,6,7-de]quinazolin-4-yl)ethyl)-N-methyloxetane-3-carboxamide], the IC50 at K-Ras G12D is < 100 nM; on K-Ras G12S, < 100 nM; on K-Ras G12V, < 100 nM; at K-Ras WT it was < 100 nM; in the assay with A549 cells, < 5000 nM; in the assay on SW620 cells, < 5000 nM.
Consider `N#Cc1c(N)sc2c(F)ccc(-c3c(Cl)c4c5c(nc(OC[C@@]67CCCN6C[C@H](F)C7)nc5c3F)N(CC3CCOCC3)CCO4)c12` [Compound 1067, 2-amino-4-(8-chloro-10-fluoro-2-(((2R,7aS)-2-fluorotetrahydro-1H-pyrrolizin-7a(5H)-yl)methoxy)-4-((tetrahydro-2H-pyran-4-yl)methyl)-5,6-dihydro-4H-[1,4]oxazepino[5,6,7-de]quinazolin-9-yl)-7-fluorobenzo[b]thiophene-3-carbonitrile], for which the IC50 is < 100 nM at K-Ras G12D; < 100 nM at K-Ras G12S; < 100 nM at K-Ras G12V; < 100 nM at K-Ras WT; < 5000 nM with A549 cells; < 5000 nM in the assay on SW620 cells.
`CC1(C)CC(N2CCOc3c(Cl)c(-c4ccc(F)c5sc(N)c(C#N)c45)c(F)c4nc(OC[C@@]56CCCN5C[C@H](F)C6)nc2c34)CO1` (stereo partly drawn) [Compound 1071, 2-amino-4-(8-chloro-4-(5,5-dimethyltetrahydrofuran-3-yl)-10-fluoro-2-(((2R,7aS)-2-fluorotetrahydro-1H-pyrrolizin-7a(5H)-yl)methoxy)-5,6-dihydro-4H-[1,4]oxazepino[5,6,7-de]quinazolin-9-yl)-7-fluorobenzo[b]thiophene-3-carbonitrile]: the 50% inhibitory concentration (IC50) at K-Ras G12D was < 100 nM; at K-Ras G12S it was < 100 nM; at K-Ras G12V it was < 100 nM; at K-Ras WT, < 100 nM; in the assay on A549 cells it was < 5000 nM; in the assay on SW620 cells it was < 5000 nM.

The record behind these values is patent US12209102B2, “Heterocyclic compounds and uses thereof” (Kumquat Biosciences Inc., priority 2022, dated 2025).
